The target of experiment [1] is Insulin-like growth factor 1 receptor (Homo sapiens) (UniProt P08069). Put plainly: Inhibition of IGF1-R at 5 to 10 uM.
Experiment [2] concerns the target PI3-kinase p110-delta/p85-alpha (Homo sapiens, UniProt O00329). Put plainly: Inhibition of human PI3K p110delta/p85alpha. The following applies: read-out: Ki(app). The experiment is classed as protein-complex assay.
The target of experiment [3] is Receptor-type tyrosine-protein kinase FLT3 (Homo sapiens) (UniProt P36888). Description: Inhibition of FLT3 at 5 to 10 uM.
Experiment [4] is described as follows: Inhibition of PDGFR at 5 to 10 uM.
For experiment [5], the target named is Serine/threonine-protein kinase PAK 1 (Homo sapiens) (UniProt Q13153). Put plainly: Inhibition of PAK1 at 5 to 10 uM.
Experiment [6] deals with T1, Inhibitor of nuclear factor kappa-B kinase subunit beta (Homo sapiens) (UniProt O14920).
T1 sequence (whole entry): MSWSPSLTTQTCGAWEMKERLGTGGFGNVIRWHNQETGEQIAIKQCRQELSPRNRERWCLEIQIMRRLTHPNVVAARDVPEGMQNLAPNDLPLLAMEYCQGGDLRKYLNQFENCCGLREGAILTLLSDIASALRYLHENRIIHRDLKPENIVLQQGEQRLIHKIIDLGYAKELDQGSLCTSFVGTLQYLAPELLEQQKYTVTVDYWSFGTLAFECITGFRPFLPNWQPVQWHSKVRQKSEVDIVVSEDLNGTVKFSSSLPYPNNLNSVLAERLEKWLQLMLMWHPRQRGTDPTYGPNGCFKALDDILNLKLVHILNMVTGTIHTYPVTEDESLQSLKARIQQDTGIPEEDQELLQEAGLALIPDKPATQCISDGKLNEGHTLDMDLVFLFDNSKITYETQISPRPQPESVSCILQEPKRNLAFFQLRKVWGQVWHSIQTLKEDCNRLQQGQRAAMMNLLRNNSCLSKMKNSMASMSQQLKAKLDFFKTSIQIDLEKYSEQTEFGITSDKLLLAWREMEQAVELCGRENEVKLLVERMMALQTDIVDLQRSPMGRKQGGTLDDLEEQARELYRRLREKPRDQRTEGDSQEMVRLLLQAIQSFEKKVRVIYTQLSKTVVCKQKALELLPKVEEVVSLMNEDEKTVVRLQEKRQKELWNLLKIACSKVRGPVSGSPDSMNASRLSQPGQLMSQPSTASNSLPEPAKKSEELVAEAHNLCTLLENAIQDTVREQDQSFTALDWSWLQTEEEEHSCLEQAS
Description: Inhibition of IKK-beta at 5 to 10 uM.

Experiment [7] has as its target Dual specificity mitogen-activated protein kinase kinase 1 (Homo sapiens) (UniProt Q02750). Description: Inhibition of MEK1 at 5 to 10 uM.
Experiment [8] has as its target Insulin receptor (Homo sapiens) (UniProt P06213). Put plainly: Inhibition of INS-R at 5 to 10 uM.
In experiment [9] the target is PI3-kinase p110-alpha/p85-alpha (Homo sapiens, UniProt P42336). Description: Inhibition of human PI3K p110alpha/p85alpha. It is filed as protein-complex assay. The following applies: read-out: Ki(app).
Experiment [10] concerns the target Epidermal growth factor receptor (Homo sapiens) (UniProt P00533). Description: Inhibition of EGF-R at 5 to 10 uM.
Experiment [11] addresses Casein kinase I isoform alpha (Homo sapiens) (UniProt P48729). Put plainly: Inhibition of CK1alpha1 at 5 to 10 uM.
For experiment [12], the target named is RAC-alpha serine/threonine-protein kinase (Homo sapiens) (UniProt P31749). Description: Inhibition of AKT1 at 5 to 10 uM.
In experiment [13] the target is T2, Serine/threonine-protein kinase 4 (Homo sapiens) (UniProt Q13043).
T2 sequence (whole entry): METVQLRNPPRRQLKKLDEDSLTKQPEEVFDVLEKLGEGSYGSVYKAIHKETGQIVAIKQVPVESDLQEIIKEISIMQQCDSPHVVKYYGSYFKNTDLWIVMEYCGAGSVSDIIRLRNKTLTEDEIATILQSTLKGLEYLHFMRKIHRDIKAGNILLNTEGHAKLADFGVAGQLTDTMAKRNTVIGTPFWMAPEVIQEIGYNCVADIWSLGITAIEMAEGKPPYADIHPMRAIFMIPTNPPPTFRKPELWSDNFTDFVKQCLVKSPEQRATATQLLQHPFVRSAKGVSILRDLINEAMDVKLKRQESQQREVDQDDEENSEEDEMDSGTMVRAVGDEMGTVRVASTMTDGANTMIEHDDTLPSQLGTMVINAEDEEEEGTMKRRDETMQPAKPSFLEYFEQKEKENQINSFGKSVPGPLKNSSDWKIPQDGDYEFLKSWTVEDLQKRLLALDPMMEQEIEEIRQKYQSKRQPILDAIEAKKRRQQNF
Description: Inhibition of MST1 at 5 to 10 uM.

Experiment [14] addresses Serine/threonine-protein kinase pim-1 (Homo sapiens) (UniProt P11309). Put plainly: Inhibition of PIM1 at 5 to 10 uM.
Experiment [15] concerns the target Phosphatidylinositol 4,5-bisphosphate 3-kinase catalytic subunit gamma isoform (Homo sapiens, UniProt P48736). Description: Inhibition of human PI3K p110gamma. The following applies: read-out: Ki(app).
Experiment [16] addresses Dual specificity tyrosine-phosphorylation-regulated kinase 1A (Homo sapiens) (UniProt Q13627). Description: Inhibition of DYRK1A at 5 to 10 uM.
Experiment [17] has as its target Mast/stem cell growth factor receptor Kit (Homo sapiens) (UniProt P10721). Put plainly: Inhibition of KIT at 5 to 10 uM.
For experiment [18], the target named is T3, Serine/threonine-protein kinase Sgk1 (Homo sapiens) (UniProt O00141).
T3 sequence (whole entry): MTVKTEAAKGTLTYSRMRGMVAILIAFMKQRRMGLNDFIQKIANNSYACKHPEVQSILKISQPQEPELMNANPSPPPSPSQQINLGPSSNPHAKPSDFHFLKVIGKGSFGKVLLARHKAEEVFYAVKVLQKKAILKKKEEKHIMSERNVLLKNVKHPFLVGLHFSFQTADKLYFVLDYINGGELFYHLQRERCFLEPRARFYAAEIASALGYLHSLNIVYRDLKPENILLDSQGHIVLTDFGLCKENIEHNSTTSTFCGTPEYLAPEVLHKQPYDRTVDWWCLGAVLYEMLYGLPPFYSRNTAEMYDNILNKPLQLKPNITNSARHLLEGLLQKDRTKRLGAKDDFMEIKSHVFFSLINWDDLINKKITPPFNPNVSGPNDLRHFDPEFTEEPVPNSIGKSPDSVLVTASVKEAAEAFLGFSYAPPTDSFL
Put plainly: Inhibition of SGK1 at 5 to 10 uM.

Experiment [19] addresses Serine/threonine-protein kinase pim-2 (Homo sapiens) (UniProt Q9P1W9). Description: Inhibition of PIM2 at 5 to 10 uM.
For another experiment, the target named is PI3K p110 beta/p85 alpha (Homo sapiens, UniProt P42338). Put plainly: Inhibition of human PI3K p110beta/p85alpha. The following applies: read-out: Ki(app). The experiment is classed as protein-complex assay.
A further experiment is filed under the species Homo sapiens. Description: Selectivity ratio of Kiapp for human PI3K p110alpha/p85alpha to Kiapp for human PI3K p110delta/p85alpha.
The target of experiment [20] is Fibroblast growth factor receptor 1 (Homo sapiens) (UniProt P11362). Description: Inhibition of FGF-R1 at 5 to 10 uM.

Bounds are passed on as bounds.

Sequence of Insulin receptor (Homo sapiens) (P06213 28-758 limits assumed): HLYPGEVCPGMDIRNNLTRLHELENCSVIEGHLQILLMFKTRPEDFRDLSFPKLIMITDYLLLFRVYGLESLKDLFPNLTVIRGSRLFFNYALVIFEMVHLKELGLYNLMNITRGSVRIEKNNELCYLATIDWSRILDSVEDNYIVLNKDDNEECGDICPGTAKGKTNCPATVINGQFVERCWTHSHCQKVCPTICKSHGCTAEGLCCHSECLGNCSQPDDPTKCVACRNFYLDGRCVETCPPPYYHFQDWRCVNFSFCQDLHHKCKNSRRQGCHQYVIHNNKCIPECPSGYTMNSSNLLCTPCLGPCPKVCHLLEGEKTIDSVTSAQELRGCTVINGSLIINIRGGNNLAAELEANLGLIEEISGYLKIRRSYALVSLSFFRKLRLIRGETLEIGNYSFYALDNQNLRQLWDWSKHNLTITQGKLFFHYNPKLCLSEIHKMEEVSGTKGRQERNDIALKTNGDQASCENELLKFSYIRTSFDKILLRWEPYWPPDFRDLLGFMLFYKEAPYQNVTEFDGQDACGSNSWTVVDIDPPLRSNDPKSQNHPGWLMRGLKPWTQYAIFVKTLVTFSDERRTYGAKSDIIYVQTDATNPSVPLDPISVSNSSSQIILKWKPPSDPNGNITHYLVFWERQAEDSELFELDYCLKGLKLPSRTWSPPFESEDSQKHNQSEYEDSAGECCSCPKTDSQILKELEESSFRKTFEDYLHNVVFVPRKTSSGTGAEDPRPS
Sequence of Insulin receptor (Homo sapiens) (P06213 763-1382 limits assumed): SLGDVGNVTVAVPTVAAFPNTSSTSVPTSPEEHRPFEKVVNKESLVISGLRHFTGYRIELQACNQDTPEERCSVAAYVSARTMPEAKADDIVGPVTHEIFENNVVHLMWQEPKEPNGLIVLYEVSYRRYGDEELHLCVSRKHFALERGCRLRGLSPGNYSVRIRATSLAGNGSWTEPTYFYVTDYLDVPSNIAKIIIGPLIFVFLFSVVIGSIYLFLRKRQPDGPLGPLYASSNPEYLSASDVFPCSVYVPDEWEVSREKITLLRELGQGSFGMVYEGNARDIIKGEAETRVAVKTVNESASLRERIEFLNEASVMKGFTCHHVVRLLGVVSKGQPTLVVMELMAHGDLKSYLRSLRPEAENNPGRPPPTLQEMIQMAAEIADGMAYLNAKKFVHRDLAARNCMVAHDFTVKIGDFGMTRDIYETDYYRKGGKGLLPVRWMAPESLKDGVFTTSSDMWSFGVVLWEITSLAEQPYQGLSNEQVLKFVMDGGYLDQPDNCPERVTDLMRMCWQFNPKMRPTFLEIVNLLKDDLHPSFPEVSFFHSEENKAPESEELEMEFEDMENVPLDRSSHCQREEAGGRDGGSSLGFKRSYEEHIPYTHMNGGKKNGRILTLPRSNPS
Sequence of Serine/threonine-protein kinase pim-1 (Homo sapiens) (P11309 whole entry, looked up, canonical isoform): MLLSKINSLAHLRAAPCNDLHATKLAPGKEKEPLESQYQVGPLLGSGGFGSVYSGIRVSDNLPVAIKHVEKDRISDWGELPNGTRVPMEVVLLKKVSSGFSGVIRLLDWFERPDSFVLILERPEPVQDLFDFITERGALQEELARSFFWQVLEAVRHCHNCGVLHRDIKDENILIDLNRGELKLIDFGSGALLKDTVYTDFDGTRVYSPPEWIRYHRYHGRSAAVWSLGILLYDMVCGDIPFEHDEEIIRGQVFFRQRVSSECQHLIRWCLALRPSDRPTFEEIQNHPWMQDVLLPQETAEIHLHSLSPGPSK
Sequence of Dual specificity mitogen-activated protein kinase kinase 1 (Homo sapiens) (Q02750 whole entry): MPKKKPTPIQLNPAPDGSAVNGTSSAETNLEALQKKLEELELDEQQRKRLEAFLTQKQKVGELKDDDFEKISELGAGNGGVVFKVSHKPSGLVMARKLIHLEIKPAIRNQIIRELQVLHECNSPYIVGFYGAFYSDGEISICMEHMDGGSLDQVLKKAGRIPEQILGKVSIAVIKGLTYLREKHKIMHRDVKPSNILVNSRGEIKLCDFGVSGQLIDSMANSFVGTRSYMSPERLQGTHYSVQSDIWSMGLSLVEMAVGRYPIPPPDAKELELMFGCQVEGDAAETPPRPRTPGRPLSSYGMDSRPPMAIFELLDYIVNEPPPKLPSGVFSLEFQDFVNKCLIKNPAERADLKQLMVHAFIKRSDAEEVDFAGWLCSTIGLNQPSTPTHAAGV
Sequence of PI3K p110 beta/p85 alpha (P27986 whole entry): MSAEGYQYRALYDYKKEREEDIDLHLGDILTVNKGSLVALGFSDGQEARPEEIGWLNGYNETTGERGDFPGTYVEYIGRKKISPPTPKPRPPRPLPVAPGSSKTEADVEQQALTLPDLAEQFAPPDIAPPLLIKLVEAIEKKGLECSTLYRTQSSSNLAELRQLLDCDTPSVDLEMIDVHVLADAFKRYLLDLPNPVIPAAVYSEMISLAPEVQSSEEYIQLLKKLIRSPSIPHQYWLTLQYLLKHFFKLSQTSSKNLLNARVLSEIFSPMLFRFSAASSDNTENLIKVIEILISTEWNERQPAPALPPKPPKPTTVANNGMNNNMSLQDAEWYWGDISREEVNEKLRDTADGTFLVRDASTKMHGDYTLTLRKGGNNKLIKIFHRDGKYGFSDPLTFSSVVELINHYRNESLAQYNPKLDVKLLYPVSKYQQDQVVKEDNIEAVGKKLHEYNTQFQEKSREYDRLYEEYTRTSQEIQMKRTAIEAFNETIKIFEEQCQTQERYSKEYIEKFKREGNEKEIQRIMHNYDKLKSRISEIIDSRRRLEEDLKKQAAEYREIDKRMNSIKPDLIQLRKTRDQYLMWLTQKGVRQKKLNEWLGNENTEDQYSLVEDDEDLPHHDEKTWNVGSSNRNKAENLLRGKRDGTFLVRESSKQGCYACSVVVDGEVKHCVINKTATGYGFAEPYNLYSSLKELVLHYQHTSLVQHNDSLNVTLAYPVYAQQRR
Sequence of PI3K p110 beta/p85 alpha (P42338 whole entry): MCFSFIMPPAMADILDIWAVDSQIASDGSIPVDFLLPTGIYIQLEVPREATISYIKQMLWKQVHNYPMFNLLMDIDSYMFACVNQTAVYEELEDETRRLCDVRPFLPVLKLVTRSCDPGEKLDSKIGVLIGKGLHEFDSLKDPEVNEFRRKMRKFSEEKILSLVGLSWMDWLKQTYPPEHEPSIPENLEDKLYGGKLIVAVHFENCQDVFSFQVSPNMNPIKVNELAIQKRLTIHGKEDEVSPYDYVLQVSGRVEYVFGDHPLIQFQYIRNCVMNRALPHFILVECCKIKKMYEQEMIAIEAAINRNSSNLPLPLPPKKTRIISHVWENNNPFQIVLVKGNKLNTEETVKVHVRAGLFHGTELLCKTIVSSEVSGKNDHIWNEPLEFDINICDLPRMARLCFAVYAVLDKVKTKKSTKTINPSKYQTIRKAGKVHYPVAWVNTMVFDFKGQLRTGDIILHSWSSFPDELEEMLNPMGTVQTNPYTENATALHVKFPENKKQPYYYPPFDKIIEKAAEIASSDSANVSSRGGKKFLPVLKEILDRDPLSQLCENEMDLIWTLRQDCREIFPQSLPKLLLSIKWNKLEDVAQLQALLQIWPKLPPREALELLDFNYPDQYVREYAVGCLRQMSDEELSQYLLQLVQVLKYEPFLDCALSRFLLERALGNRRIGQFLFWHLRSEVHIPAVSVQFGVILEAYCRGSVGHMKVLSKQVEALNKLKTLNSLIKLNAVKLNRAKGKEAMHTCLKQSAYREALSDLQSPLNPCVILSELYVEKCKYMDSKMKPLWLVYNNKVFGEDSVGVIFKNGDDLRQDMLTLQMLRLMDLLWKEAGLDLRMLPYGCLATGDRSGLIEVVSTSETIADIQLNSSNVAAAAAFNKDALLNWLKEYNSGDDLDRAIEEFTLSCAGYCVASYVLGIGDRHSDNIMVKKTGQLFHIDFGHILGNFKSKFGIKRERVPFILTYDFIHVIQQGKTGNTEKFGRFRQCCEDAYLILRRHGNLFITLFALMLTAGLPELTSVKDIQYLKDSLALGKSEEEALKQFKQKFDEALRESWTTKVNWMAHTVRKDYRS
Sequence of PI3-kinase p110-alpha/p85-alpha (P27986 whole entry): as the sequence (P27986 whole entry) above
Sequence of PI3-kinase p110-alpha/p85-alpha (P42336 whole entry): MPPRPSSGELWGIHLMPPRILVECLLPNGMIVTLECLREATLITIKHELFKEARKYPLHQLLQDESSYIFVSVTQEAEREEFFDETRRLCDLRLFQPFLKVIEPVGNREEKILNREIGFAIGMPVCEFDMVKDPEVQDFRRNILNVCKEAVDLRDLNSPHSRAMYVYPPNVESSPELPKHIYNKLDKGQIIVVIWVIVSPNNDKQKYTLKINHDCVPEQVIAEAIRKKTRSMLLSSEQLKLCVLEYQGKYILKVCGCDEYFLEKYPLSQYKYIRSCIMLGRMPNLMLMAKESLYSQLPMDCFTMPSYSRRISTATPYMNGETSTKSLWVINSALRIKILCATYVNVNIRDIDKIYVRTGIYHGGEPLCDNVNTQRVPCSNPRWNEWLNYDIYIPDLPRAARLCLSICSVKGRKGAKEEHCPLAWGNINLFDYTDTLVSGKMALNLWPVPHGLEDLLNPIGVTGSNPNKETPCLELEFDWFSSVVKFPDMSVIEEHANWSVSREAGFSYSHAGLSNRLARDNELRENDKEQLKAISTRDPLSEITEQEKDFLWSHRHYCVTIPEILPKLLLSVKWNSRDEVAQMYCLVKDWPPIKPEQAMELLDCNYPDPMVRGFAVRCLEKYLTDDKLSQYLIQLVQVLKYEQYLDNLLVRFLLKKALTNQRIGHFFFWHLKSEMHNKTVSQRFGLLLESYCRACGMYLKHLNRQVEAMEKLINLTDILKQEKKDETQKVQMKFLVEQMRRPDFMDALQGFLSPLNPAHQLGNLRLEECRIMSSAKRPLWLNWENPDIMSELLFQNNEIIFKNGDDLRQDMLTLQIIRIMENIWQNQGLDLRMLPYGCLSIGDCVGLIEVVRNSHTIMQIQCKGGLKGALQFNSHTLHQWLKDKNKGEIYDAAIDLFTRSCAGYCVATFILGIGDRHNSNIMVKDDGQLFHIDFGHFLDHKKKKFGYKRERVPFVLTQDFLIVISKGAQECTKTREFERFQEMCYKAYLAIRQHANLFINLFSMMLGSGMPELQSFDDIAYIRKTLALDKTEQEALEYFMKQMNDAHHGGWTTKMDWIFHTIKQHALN

Turning to `O=C(NCCN1CCOCC1)c1cn2cc(-c3cccc4[nH]ncc34)nc(N3CCOCC3)c2n1`, the inhibition in experiment [1], in [3], in experiment [4], in experiment [5], in experiment [6] and in [7] was below 50% in each case. For the same molecule, the inhibition was 50% in [8]; below 50% in experiment [10]; below 50% in [11]; 50% in experiment [12]; below 50% in experiment [13]; below 50% in [14]. In addition, the inhibition in [16], in [17], in experiment [18], in experiment [19] and in experiment [20] was below 50% in each case. The Ki in experiment [2] is 6.5 nM; in experiment [9] it was 65 nM; in [15] it was above 500 nM; at PI3K p110 beta/p85 alpha it was above 500 nM. Also, the Ratio Ki(app) in the experiment filed under Homo sapiens stood at 10.

As for `CS(=O)(=O)N1CCN(Cc2cn3c(Cl)c(-c4cccc5[nH]ncc45)nc(N4CCOCC4)c3n2)CC1`, the inhibition in [1], in experiment [3], in experiment [4], in experiment [5], in experiment [6] and in experiment [7] was below 50% each time. The inhibition in experiment [8] is 50%; in experiment [10], below 50%; in [11], below 50%; in experiment [12], 50%; in experiment [13] it was below 50%; in [14] it was below 50%. Further, the inhibition in [16], in experiment [17], in experiment [18], in [19] and in experiment [20] was below 50% in each case. Besides, the Ki was 65 nM in experiment [2], 210 nM in [9], above 500 nM in experiment [15] and above 500 nM on PI3K p110 beta/p85 alpha. Further, in the experiment filed under Homo sapiens, the Ratio Ki(app) turned out to be 3.2.

These data come from ChEMBL document CHEMBL1955823, “Imidazo[1,2-a]pyrazines as novel PI3K inhibitors” (Bioorg Med Chem Lett, 2012).
